{
  "source": "patent US9163032B2",
  "about": "“Esters of DCPLA and methods of treatment using the same” (Blanchette Rockefeller Neurosciences Institute, priority 2011, dated 2015)",
  "key": {"[1]": {"test_system": "Phosphatidylserine (C2) Binding Site", "assay": "3H-DCPLA-ME binding to rat brain slices with C1 and C2 competitors (film-autoradiography)", "method": "To determine the binding site of DCPLA-ME, ^3H-DCPLA-ME was incubated with rat brain slices in the absence and presence of known C1 and C2 competitors. More specifically, rat brain sections were fixed with formaldehyde, sliced, and incubated with (1)^3H-DCPLA-ME alone; (2)^3H-DCPLA-ME with DCPLA; (3)^3H-DCPLA-ME with Phorbol ester; or (4)^3H-DCPLA-ME and Bryostatin 1. After incubation, the slices were washed with a buffer made of 130 mM NaCl, 5 mM MgCl, 5 mM KCl, 1 mM EGTA, and 0.1% bovine serum albumin in 10 mM HEPES-NaOH, pH 7.4, dried, and analyzed with film-autoradiography."}, "PKC-ε": {"biological_target": "T1, PKC-ε (Homo sapiens, UniProt Q02156)", "T1 sequence (Q02156 1-737)": "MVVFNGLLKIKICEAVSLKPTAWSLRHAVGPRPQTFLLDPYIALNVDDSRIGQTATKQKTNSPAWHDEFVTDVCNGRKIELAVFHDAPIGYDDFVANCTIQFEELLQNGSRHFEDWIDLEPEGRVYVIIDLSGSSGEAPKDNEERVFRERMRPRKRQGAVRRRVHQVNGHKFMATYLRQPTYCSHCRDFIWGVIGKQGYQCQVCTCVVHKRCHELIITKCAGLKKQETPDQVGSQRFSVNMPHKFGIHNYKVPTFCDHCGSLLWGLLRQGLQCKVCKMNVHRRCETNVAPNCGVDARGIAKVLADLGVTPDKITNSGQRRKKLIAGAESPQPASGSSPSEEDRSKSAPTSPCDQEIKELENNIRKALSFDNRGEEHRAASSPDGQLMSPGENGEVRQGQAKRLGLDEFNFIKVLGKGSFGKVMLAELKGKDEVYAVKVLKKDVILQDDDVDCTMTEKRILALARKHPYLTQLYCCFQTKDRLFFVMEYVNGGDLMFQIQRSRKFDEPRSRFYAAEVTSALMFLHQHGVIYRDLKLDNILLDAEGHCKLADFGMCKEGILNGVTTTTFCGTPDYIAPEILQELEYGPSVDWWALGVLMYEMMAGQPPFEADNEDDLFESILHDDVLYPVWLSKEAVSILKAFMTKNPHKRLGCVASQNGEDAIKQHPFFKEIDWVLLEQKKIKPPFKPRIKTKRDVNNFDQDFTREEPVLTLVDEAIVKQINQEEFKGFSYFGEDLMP", "assay": "PKC activation assay with purified PKC-ε isozyme (32P-phosphoprotein formation)", "type": "biochemical", "method": "For measurement of PKC activation by DCPLA-ME, activation of recombinant PKC-α, PKC-ε, and PKC-δ was evaluated. DCPLA-ME induced activation was measured in the absence of diacylglycerol (DAG) and phosphatidylserine (PS) as described earlier. See Nelson, T. J. et al., J. Biol. Chem., 2009, 284: 34514-34521, and Kanno, T. et al., J. Cell Physiol., 2009, 221: 183-188. Individual enzymes were incubated for 15 min at 37° C. in the presence of 10 μM histones, 4.89 mM CaCl2, 10 mM MgCl2, 20 mM HEPES (pH 7.4), 0.8 mM EDTA, 4 mM EGTA, 4% glycerol, 8 μg/ml aprotinin, 8 μg/ml leupeptin, 2 mM benzamidine, and 0.5 μCi of [γ-^32P]ATP. Purified PKC-α, PKC-ε and PKC-δ were preincubated with DCPLA-ME for 5 min at room temperature. [^32P]-Phosphoprotein formation was measured by adsorption onto phosphocellulose.\nTo measure PKC, 10 μl of cell homogenate or purified PKC isozyme was incubated for 15 min at 37° C. in the presence of 10 μM histones, 4.89 mM CaCl2, 1.2 μg/μl phosphatidyl-L-serine, 0.18 μg/μl 1,2-dioctanoyl-sn-glycerol, 10 mM MgCl2, 20 mM HEPES (pH 7.4), 0.8 mM EDTA, 4 mM EGTA, 4% glycerol, 8 μg/ml aprotinin, 8 μg/ml leupeptin, and 2 mM benzamidine. [γ32P]ATP (0.5 μCi) was added and 32P-phosphoprotein formation was measured by adsorption onto phosphocellulose as described previously. See Nelson et al., J. Neurochemistry, 1995, 65: 2350-2357.\nPKC activity of each compound was measured in the absence of diacylglycerol and phosphatidyl-L-serine and PKC-δ and PKC-ε were measured in the absence of added EGTA and CaCl2, as described by Kanno et al., J. Lipid Res., 2006, 47: 1146-1156. Low concentrations of Ca^2+ are needed because high Ca^2+ interacts with the PKC phosphatidylserine binding site and prevents activation. […] To determine their PKC isozyme specificity, the compounds were pre-incubated with purified isoforms of PKC for five minutes and the PKC activity was measured radiometrically.\nThe activation and PKC isozyme specificity of DCPLA-ethyl ester was measured following the procedures in Example 1(B) and (C), except that 9 ng of the purified isozyme was used and it was pre-incubated for 5 minutes at room temperature (FIG. 3). PKC-ε activation by DCPLA-tert-butyl ester and DCPLA-retinyl ester was measured in the same manner as DCPLA-ethyl ester (FIG. 3).\nThe EC50 values, PKC specificity, and activation for a select number of DCPLA esters was determined (see Table 1). EC50 values were determined by measuring the lowest concentration that activates by 50% of maximum activation. […] The specificity and activation of PKC by the various esters of DCPLA were determined from the measurements of activation of PKC isozymes."}},
  "data": [
    {"smiles": "CCCCCC1CC1CC1CC1CCCCCCCC(=O)OC", "note": "(stereo not drawn) [DCPLA-ME, DCPLA methyl ester]", "values": [
      {"measurement": "binding site", "setting": "[1]", "value": "phosphatidylserine (C2) site"},
      {"measurement": "3H-DCPLA-ME binding, 30 nM competitor", "setting": "[1]; 30 nM competitor, rat brain slices", "value": 64, "unit": "%"},
      {"measurement": "3H-DCPLA-ME binding, 1 μM competitor", "setting": "[1]; 1 μM competitor, rat brain slices", "value": 37, "unit": "%"},
      {"measurement": "Emax", "setting": "PKC-ε; % of control of PKCε at maximum", "value": 195, "unit": "%"},
      {"measurement": "Specificity ε/α", "setting": "PKC-ε; Activation of PKC-ε ÷ activation or inhibition of PKCα at 3xEC50", "value": 12.1},
      {"measurement": "PKC isozyme specificity", "setting": "PKC-ε; PKC-ε vs PKC-α and PKC-δ", "value": "relatively specific for PKC-ε"},
      {"measurement": "PKC-ε activation", "setting": "PKC-ε; in a range of 0.01-10 μM", "value": "more than 50%"},
      {"measurement": "EC50", "setting": "PKC-ε; lowest concentration that activates by 50% of maximum activation", "value": 3, "unit": "nM"},
      {"measurement": "PKC-ε activation at its peak", "setting": "PKC-ε; maximum, FIG. 1, 2, 4", "value": "up to 190 % of control"}
    ]}
  ]
}
